PMC8752738, “A propolis-derived small molecule ameliorates metabolic syndrome in obese mice by targeting the CREB/CRTC2 transcriptional complex” (Nature Communications, 2022)
“And” between values parts separate entries of the source, which are not always exact repeats. Equal entries are not always repeated.

What was measured:
[1] = tested on: primary hepatocytes; assay: Glucose production assay; assay type: cell-based, mouse
Method: Primary hepatocytes were exposed to propolis, APC or vehicle control for 1-h prior to 4-h stimulation with glucagon, and then incubated in no-glucose no-phenol-red DMEM (Sigma) supplied with 2 mM sodium pyruvate (Sigma) and 10 mM sodium lactate (Sigma) for 8-h. Glucose levels in the media were detected using a GO kit (Sigma).

[2] = biological target: T1, endogenous CRTC2 / CBP interaction (Mus musculus, UniProt P45481+Q3U182); assay: Co-immunoprecipitation by anti-CRTC2 antibody, primary hepatocytes: CBP; assay type: cell-based
T1 construct: endogenous in cells; host or cells: mouse primary hepatocytes
T1 sequence (Q3U182 2-692 limits assumed): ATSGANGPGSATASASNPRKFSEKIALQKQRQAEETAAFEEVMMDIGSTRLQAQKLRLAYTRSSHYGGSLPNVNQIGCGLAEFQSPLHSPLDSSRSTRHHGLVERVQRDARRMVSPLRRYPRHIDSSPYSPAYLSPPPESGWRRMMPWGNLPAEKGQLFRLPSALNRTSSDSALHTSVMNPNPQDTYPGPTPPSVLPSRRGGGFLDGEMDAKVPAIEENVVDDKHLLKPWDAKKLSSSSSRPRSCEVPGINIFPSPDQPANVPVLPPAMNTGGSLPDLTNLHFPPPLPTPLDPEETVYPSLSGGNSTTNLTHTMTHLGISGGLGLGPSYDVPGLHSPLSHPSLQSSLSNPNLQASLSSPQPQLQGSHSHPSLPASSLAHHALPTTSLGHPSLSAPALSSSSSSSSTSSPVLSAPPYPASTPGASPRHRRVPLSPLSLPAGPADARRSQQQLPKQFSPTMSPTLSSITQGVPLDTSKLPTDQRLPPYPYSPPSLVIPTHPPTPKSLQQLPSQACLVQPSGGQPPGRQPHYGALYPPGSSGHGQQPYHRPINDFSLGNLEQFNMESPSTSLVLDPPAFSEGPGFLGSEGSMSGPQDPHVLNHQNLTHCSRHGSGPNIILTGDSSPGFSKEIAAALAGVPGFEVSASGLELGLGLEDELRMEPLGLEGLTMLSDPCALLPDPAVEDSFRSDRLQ
T1 sequence (P45481 2-2441 limits assumed): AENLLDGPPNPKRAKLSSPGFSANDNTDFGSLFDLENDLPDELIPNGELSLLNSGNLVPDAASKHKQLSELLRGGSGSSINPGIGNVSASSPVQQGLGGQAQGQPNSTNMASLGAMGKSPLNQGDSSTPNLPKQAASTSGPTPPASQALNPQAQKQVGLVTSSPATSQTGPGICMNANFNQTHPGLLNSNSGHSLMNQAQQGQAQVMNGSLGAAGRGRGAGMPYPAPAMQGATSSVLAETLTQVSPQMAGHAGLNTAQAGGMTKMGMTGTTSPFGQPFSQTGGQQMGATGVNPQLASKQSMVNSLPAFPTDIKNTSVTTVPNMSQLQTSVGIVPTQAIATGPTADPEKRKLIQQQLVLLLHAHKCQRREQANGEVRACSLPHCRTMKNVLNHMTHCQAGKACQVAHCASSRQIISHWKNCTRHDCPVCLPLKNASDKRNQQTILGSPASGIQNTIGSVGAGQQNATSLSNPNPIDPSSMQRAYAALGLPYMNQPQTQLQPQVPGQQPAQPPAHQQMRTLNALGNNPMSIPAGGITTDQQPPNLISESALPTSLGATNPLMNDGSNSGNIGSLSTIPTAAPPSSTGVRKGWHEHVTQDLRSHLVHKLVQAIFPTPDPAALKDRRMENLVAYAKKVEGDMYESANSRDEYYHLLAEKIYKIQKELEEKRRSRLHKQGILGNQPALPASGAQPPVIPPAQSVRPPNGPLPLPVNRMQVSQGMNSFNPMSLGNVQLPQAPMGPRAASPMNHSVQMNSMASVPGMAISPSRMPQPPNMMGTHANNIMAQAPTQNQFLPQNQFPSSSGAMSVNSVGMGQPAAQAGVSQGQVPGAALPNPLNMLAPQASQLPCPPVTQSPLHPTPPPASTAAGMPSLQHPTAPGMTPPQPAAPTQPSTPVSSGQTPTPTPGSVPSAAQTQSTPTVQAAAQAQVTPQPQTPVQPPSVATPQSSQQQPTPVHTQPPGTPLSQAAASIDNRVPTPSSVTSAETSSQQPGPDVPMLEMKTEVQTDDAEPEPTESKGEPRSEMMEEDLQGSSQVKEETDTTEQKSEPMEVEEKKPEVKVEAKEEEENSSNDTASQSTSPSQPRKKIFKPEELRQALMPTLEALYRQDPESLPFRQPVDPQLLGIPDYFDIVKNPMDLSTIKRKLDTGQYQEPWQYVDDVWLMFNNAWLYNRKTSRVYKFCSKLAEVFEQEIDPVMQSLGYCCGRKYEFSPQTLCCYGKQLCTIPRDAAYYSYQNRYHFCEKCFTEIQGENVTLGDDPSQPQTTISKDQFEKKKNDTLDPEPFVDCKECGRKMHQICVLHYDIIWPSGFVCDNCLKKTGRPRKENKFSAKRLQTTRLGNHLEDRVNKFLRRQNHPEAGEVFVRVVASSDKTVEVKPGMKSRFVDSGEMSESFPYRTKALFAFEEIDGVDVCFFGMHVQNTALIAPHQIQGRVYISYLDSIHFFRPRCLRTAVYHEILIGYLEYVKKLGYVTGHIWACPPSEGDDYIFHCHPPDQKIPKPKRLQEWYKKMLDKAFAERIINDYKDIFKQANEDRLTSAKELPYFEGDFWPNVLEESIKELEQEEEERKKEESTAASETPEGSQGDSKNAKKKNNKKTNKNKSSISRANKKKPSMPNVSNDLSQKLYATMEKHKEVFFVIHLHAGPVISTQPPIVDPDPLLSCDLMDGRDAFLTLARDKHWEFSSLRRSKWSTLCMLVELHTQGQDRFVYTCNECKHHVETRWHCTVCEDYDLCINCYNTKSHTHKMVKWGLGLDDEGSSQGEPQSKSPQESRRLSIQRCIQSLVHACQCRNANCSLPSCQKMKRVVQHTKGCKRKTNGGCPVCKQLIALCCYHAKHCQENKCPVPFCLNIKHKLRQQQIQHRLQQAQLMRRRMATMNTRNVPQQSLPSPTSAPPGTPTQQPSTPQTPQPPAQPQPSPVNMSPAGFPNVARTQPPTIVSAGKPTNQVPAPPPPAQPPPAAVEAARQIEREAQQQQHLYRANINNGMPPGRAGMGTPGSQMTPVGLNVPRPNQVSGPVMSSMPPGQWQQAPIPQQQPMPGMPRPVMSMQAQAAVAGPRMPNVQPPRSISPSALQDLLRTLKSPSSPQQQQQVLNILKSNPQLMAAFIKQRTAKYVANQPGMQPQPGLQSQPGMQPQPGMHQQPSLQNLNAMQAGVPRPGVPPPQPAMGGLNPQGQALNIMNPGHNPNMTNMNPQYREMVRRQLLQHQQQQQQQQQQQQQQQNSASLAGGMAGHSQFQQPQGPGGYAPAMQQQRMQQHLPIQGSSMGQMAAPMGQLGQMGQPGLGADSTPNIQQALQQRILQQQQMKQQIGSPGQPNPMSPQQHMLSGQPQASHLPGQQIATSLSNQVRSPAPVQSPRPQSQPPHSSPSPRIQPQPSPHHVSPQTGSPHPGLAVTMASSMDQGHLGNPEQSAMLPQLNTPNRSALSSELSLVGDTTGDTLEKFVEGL
Method: Fig. 2 APC blocks interaction between CREB and CRTC2. a Analysis of GST-CREB immunoprecipitated with overexpressed FLAG-CRTC2 from the lysates of HEK293T cells. APC (10 μM) was added to the culture media for 1 h and the following IP mixture. The relative gray density of FLAG in GST-pull-down fraction is shown as a bar graph (bottom). One of three independent experiments is presented (top, n = 3). Data are represented as mean ± SEM); P values were determined by one-way ANOVA followed Dunnett’s multiple comparisons test. b Analysis of HA-CRTC2 immunoprecipitated with endogenous CREB from primary hepatocyte lysates. […] Data are represented as mean ± SEM; P values were determined by one-way ANOVA followed Dunnett’s multiple comparisons test. c Immunoblotting analysis of endogenous CREB, CRTC2, and CBP interaction by an anti-CRTC2 antibody from the lysate of primary hepatocytes. […] Data are represented as mean ± SEM; P values were determined by two-way ANOVA followed Bonferroni’s multiple comparisons test. d Immunoblotting analysis of protein GST-CREB recovered HIS-CRTC2-S171A proteins purified from E. coli. […] Data are represented as mean ± SEM; P values were determined by one-way ANOVA followed Dunnett’s multiple comparisons test (compared with APC = 0). […]

What does the source list for `CC(C)=CCc1cc(C=CC(=O)O)cc(CC=C(C)C)c1O` [APC, 3,5-diprenyl-4-hydroxycinnamic acid]?
glucose output and Pgc-1α, Pck1 expression in CRTC2-null primary hepatocytes ([1]; glucagon, APC 10 μM): unable to further reduce; glucose output induced by glucagon ([1]; primary hepatocytes, APC 5 μM): reduced; CBP/CRTC2 band gray signal, CRTC2-COIP fraction ([2]; Fig 2c replicates, APC+ (10 μM)): 0.6163 and 0.6152 and 0.6031; interaction between endogenous CRTC2 and CBP ([2]; primary hepatocytes, APC 10 μM): little effect
